Experimental data: patent publication WO2015077660A1, “Enzyme reactor system enabling enhanced enzymatic digestion, analyte solubility and improved mass spectrometric compatibility” (priority 2013, dated 2014)
One block for each compound: values may come before it.

Legend:
porcine trypsin = test system: T1, porcine trypsin; assay: Insulin digestion by trypsin in solution, buffer screening (Table 9); format: biochemical; conditions: 37°C, 18 h
T1 construct: purchased

trypsin = assay: Insulin digestion in immobilized enzyme reactor, buffer screening (Table 7); format: biochemical, porcine; conditions: IMER, 70°C, 60 s

Compound: C[C@H](CCC(=O)[O-])[C@H]1CC[C@H]2[C@@H]3CC[C@@H]4C[C@H](O)CC[C@]4(C)[C@H]3C[C@H](O)[C@]12C.[Na+] [SDC, sodium deoxycholate]
Digested (porcine trypsin; 0.1%): 1284656 | Peptide (porcine trypsin; 0.1%): 5961 | Undigested (porcine trypsin; 0.1%): 3123245 | Digested (porcine trypsin; 0.2%): 12332 | Peptide (porcine trypsin; 0.2%): 480241 | Undigested (porcine trypsin; 0.2%): 29962 | Digested (porcine trypsin; 0.5%): 114517 | Peptide (porcine trypsin; 0.5%): 361200 | Undigested (porcine trypsin; 0.5%): 499326 | Digested (porcine trypsin; 1%): 124131 | Peptide (porcine trypsin; 1%): 239833 | Undigested (porcine trypsin; 1%): 1149062 | Digested (trypsin; 0.1%): 296346 | Peptide (trypsin; 0.1%): 101770 | Undigested (trypsin; 0.1%): 4216641 | Digested (trypsin; 0.2%): 94589 | Peptide (trypsin; 0.2%): 30902 | Undigested (trypsin; 0.2%): 5010947 | Digested (trypsin; 0.5%): 12088 | Peptide (trypsin; 0.5%): 1351 | Undigested (trypsin; 0.5%): 1648635 | Digested (trypsin; 1%): 8134 | Peptide (trypsin; 1%): 1275 | Undigested (trypsin; 1%): 284843

Compound: NC(CO)(CO)CO [Tris]
Digested (porcine trypsin; 0.05M): 1995427 | Peptide (porcine trypsin; 0.05M): 860551 | Undigested (porcine trypsin; 0.05M): 3125626 | Digested (porcine trypsin; 0.1M): 2524942 | Peptide (porcine trypsin; 0.1M): 1101647 | Undigested (porcine trypsin; 0.1M): 2122289 | Digested (porcine trypsin; 0.25M): 3462464 | Peptide (porcine trypsin; 0.25M): 1564913 | Undigested (porcine trypsin; 0.25M): 997441 | Digested (porcine trypsin; 0.5M): 3218135 | Peptide (porcine trypsin; 0.5M): 1297337 | Undigested (porcine trypsin; 0.5M): 780101 | Digested (porcine trypsin; 1M): 3458079 | Peptide (porcine trypsin; 1M): 1431917 | Undigested (porcine trypsin; 1M): 1156801 | Digested (trypsin; 0.05M): 2479332 | Undigested (trypsin; 0.05M): 893529 | Digested (trypsin; 0.1M): 2540889 | Undigested (trypsin; 0.1M): 990996 | Digested (trypsin; 0.25M): 2440181 | Undigested (trypsin; 0.25M): 1291934 | Digested (trypsin; 0.5M): 2205308 | Peptide (trypsin; 0.5M): 879474 | Undigested (trypsin; 0.5M): 1490447 | Digested (trypsin; 1M): 1923103 | Peptide (trypsin; 1M): 745060 | Undigested (trypsin; 1M): 2177969

Compound: CC#N [ACN, acetonitrile]
Digested (porcine trypsin; 5%): 1409360 | Peptide (porcine trypsin; 5%): 625535 | Undigested (porcine trypsin; 5%): 5143004 | Digested (porcine trypsin; 10%): 1676314 | Peptide (porcine trypsin; 10%): 692364 | Undigested (porcine trypsin; 10%): 4742266 | Digested (porcine trypsin; 15%): 1925305 | Peptide (porcine trypsin; 15%): 779339 | Undigested (porcine trypsin; 15%): 2715010 | Digested (porcine trypsin; 20%): 2507679 | Peptide (porcine trypsin; 20%): 1020020 | Undigested (porcine trypsin; 20%): 3445401 | Digested (trypsin; 5%): 1344796 | Peptide (trypsin; 5%): 568057 | Undigested (trypsin; 5%): 3327305 | Digested (trypsin; 10%): 719966 | Peptide (trypsin; 10%): 309638 | Undigested (trypsin; 10%): 4860471 | Digested (trypsin; 15%): 292205 | Peptide (trypsin; 15%): 116402 | Undigested (trypsin; 15%): 5326017 | Digested (trypsin; 20%): 194140 | Peptide (trypsin; 20%): 86754 | Undigested (trypsin; 20%): 6433237

Digested (trypsin; 0.5M): 1816572 | Peptide (trypsin; 0.5M): 715848 | Undigested (trypsin; 0.5M): 2285541 | Digested (trypsin; 1M): 1448998 | Peptide (trypsin; 1M): 555954 | Undigested (trypsin; 1M): 2812910 | Digested (trypsin; 2M): 905391 | Peptide (trypsin; 2M): 349854 | Undigested (trypsin; 2M): 3812799 | Digested (trypsin; 4M): 285873 | Peptide (trypsin; 4M): 104200 | Undigested (trypsin; 4M): 4609299 | Digested (trypsin; 6M): 139668 | Peptide (trypsin; 6M): 49088 | Undigested (trypsin; 6M): 4675789 | Digested (trypsin; 8M): 43865 | Peptide (trypsin; 8M): 13979 | Undigested (trypsin; 8M): 4151508
Compound: NC(N)=O [Urea]
Digested (porcine trypsin; 0.5M): 1220686 | Peptide (porcine trypsin; 0.5M): 538728 | Undigested (porcine trypsin; 0.5M): 3763696 | Digested (porcine trypsin; 1M): 1145096 | Peptide (porcine trypsin; 1M): 511139 | Undigested (porcine trypsin; 1M): 2972094 | Digested (porcine trypsin; 2M): 1106227 | Peptide (porcine trypsin; 2M): 490181 | Undigested (porcine trypsin; 2M): 3034093 | Digested (porcine trypsin; 4M): 860501 | Peptide (porcine trypsin; 4M): 389932 | Undigested (porcine trypsin; 4M): 2877527 | Digested (porcine trypsin; 6M): 529552 | Peptide (porcine trypsin; 6M): 301136 | Undigested (porcine trypsin; 6M): 3250299 | Digested (porcine trypsin; 8M): 156492 | Peptide (porcine trypsin; 8M): 69027 | Undigested (porcine trypsin; 8M): 2197015

Digested (trypsin; 50 mM): 2438065 | Peptide (trypsin; 50 mM): 1040553 | Undigested (trypsin; 50 mM): 1152957
Compound: O=S(=O)(O)CCN1CCN(CCO)CC1 [HEPES]
Digested (porcine trypsin; 50 mM): 1758816 | Peptide (porcine trypsin; 50 mM): 758959 | Undigested (porcine trypsin; 50 mM): 2816170

Digested (trypsin; 5%): 696091 | Peptide (trypsin; 5%): 291902 | Undigested (trypsin; 5%): 4427643 | Digested (trypsin; 10%): 208098 | Peptide (trypsin; 10%): 86945 | Undigested (trypsin; 10%): 5774155 | Digested (trypsin; 15%): 126129 | Peptide (trypsin; 15%): 52332 | Undigested (trypsin; 15%): 5930073 | Digested (trypsin; 20%): 135325 | Peptide (trypsin; 20%): 55155 | Undigested (trypsin; 20%): 5148164
Compound: CC(C)O [IPA, isopropyl alcohol]
Digested (porcine trypsin; 5%): 1024085 | Peptide (porcine trypsin; 5%): 407876 | Undigested (porcine trypsin; 5%): 3528233 | Digested (porcine trypsin; 10%): 1133300 | Peptide (porcine trypsin; 10%): 418703 | Undigested (porcine trypsin; 10%): 3935383 | Digested (porcine trypsin; 15%): 906822 | Peptide (porcine trypsin; 15%): 322103 | Undigested (porcine trypsin; 15%): 4509078 | Digested (porcine trypsin; 20%): 954036 | Peptide (porcine trypsin; 20%): 347874 | Undigested (porcine trypsin; 20%): 4992140

Digested (trypsin; 5%): 1804007 | Peptide (trypsin; 5%): 719810 | Undigested (trypsin; 5%): 2280353 | Digested (trypsin; 10%): 1483343 | Peptide (trypsin; 10%): 618353 | Undigested (trypsin; 10%): 2811668 | Digested (trypsin; 15%): 1058609 | Peptide (trypsin; 15%): 437967 | Undigested (trypsin; 15%): 3394971 | Digested (trypsin; 20%): 722730 | Peptide (trypsin; 20%): 296540 | Undigested (trypsin; 20%): 3631216
Compound: C[S+](C)[O-] [DMSO, dimethylsulfoxide]
Digested (porcine trypsin; 5%): 1193067 | Peptide (porcine trypsin; 5%): 499051 | Undigested (porcine trypsin; 5%): 3219771 | Digested (porcine trypsin; 10%): 1185116 | Peptide (porcine trypsin; 10%): 442885 | Undigested (porcine trypsin; 10%): 3803031 | Digested (porcine trypsin; 15%): 1233021 | Peptide (porcine trypsin; 15%): 481657 | Undigested (porcine trypsin; 15%): 4423224 | Digested (porcine trypsin; 20%): 1215388 | Peptide (porcine trypsin; 20%): 467559 | Undigested (porcine trypsin; 20%): 4523186

Compound: CO [MeOH, methanol]
Digested (porcine trypsin; 5%): 1415794 | Peptide (porcine trypsin; 5%): 576911 | Undigested (porcine trypsin; 5%): 5318134 | Digested (porcine trypsin; 10%): 216568 | Peptide (porcine trypsin; 10%): 88569 | Undigested (porcine trypsin; 10%): 4800365 | Digested (porcine trypsin; 15%): 1700395 | Peptide (porcine trypsin; 15%): 666807 | Undigested (porcine trypsin; 15%): 4218905 | Digested (porcine trypsin; 20%): 1986863 | Peptide (porcine trypsin; 20%): 756073 | Undigested (porcine trypsin; 20%): 3394642 | Digested (trypsin; 5%): 1511720 | Peptide (trypsin; 5%): 627591 | Undigested (trypsin; 5%): 2902781 | Digested (trypsin; 10%): 1001203 | Peptide (trypsin; 10%): 417070 | Undigested (trypsin; 10%): 3946896 | Digested (trypsin; 15%): 675569 | Peptide (trypsin; 15%): 277958 | Undigested (trypsin; 15%): 5012221 | Digested (trypsin; 20%): 518131 | Peptide (trypsin; 20%): 213935 | Undigested (trypsin; 20%): 5268985

Compound: OCC(F)(F)F [TFE]
Digested (porcine trypsin; 5%): 710737 | Peptide (porcine trypsin; 5%): 271046 | Undigested (porcine trypsin; 5%): 4417966 | Digested (porcine trypsin; 10%): 512715 | Peptide (porcine trypsin; 10%): 201962 | Undigested (porcine trypsin; 10%): 4499811 | Digested (porcine trypsin; 15%): 571716 | Peptide (porcine trypsin; 15%): 224520 | Undigested (porcine trypsin; 15%): 4785656 | Digested (porcine trypsin; 20%): 661078 | Peptide (porcine trypsin; 20%): 253234 | Undigested (porcine trypsin; 20%): 4907160 | Digested (trypsin; 5%): 513982 | Peptide (trypsin; 5%): 208344 | Undigested (trypsin; 5%): 4502764 | Digested (trypsin; 10%): 95904 | Peptide (trypsin; 10%): 39996 | Undigested (trypsin; 10%): 5112793 | Digested (trypsin; 15%): 40955 | Peptide (trypsin; 15%): 18047 | Undigested (trypsin; 15%): 5055881 | Digested (trypsin; 20%): 26014 | Peptide (trypsin; 20%): 9756 | Undigested (trypsin; 20%): 5626809
